According to article PMC6081394, “Structural basis of cell wall anchoring by SLH domains in Paenibacillus alvei” (Nature Communications, 2018):

Experiments:
[1] = biological target: T1, S-layer protein SpaA (SpaASLH) (Paenibacillus alvei, UniProt C1JZ07); assay: co-crystal structure (no binding detected by ITC)
T1 construct: SLH domain trimer, amino acids 21–193, Ser-Gly-Ser linker and C-terminal His6-tag
T1 sequence (C1JZ07 21-193): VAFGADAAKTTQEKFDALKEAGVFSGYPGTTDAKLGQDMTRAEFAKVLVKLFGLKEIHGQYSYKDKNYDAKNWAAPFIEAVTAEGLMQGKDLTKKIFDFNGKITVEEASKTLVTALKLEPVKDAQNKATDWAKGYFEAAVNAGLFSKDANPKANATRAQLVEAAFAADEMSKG

[2] = biological target: T2, S-layer protein SpaA (SpaASLH/G109A) (Paenibacillus alvei, UniProt C1JZ07, G109A); assay: ITC and co-crystal structure; type: binding
T2 construct: SLH domain trimer, amino acids 21–193, Ser-Gly-Ser linker and C-terminal His6-tag

[3] = biological target: T1, S-layer protein SpaA (SpaASLH); assay: ITC and co-crystal structures; type: binding
[4] = biological target: T3, S-layer protein SpaA (SpaASLH/G46A/G109A) (Paenibacillus alvei, UniProt C1JZ07, G46A/G109A); assay: co-crystal structure (no binding detected by ITC)
T3 construct: SLH domain trimer, amino acids 21–193, Ser-Gly-Ser linker and C-terminal His6-tag
T3 sequence (C1JZ07 21-193 G46A/G109A): T1 sequence (C1JZ07 21-193)

SMILES | co-crystal structure (no binding detected by ITC) [1] | Kd [2] | Kd [3] | co-crystal structure (no binding detected by ITC) [4]
CO[C@@H]1O[C@@H]2CO[C@](C)(C(=O)O)O[C@H]2[C@H](O[C@@H]2O[C@H](CO)[C@@H](O)[C@H](O)[C@H]2NC(C)=O)[C@@H]1NC(C)=O [disaccharide, β-D-GlcNAc-(1 → 3)-4,6-Pyr-β-D-ManNAcOMe] | Despite the lack of binding measured by ITC, a co-crystal structure with the internal disaccharide was obtained |  |  | 
CO[C@@H]1O[C@@H]2CO[C@](C)(C(=O)O)O[C@H]2[C@H](O)[C@@H]1NC(C)=O [monosaccharide (M), 4,6-Pyr-β-D-ManNAcOMe] |  | 226 nM | 29 nM | Despite the lack of binding detected by ITC, ligand is again observed bound in the G2 pocket
